The values that follow come from patent US20170292961A1, “SYSTEMS AND METHODS FOR ASSESSING INTER-CELL COMMUNICATION” (Q-STATE BIOSCIENCES, INC., priority 2014, published 2017).

Changes are numbered by the printed parent chain. In names and notes the source's numbering stands. Several values for one entry are separate records, joined by “and”; a condition that tells them apart may be missing. Identical values can stand only once. Like-named read-outs stand apart in the source and are kept apart here.

For data set [1], the system named is neurons. An excerpt:
Methods of the invention may be used to evaluate the effects of compounds on neurons. In some embodiments, the cells that include the optical voltage reporter are neurons and those neurons are exposed to a voltage-gated potassium channel blocker such as tetraethylammonium.

Data set [2] relates to estrogen sulfotransferase. The conditions noted are these: pathway of metabolism of birth control pill ingredients; cited from earlier work.
Data set [3] has as its system patient-derived neurons. In words: Spike frequency of patient-derived neurons exposed to an anticonvulsant. It counts as cell-based. Conditions: for spike frequency: in DMSO versus DMSO alone. The source says:
FIG. 52 illustrates the results of exposing patient-derived neurons to acute doses of an anticonvulsant. A frequency of spiking is plotted over unitless scaled stimulus strength. Angled vertical lines are drawn onto the graph to aid in showing which data points correspond to one another. Asterisks are used to indicate a significance of a difference. […] FIG. 53 illustrates the results of exposing patient-derived neurons to chronic doses of an anticonvulsant. A frequency of spiking is plotted over unitless scaled stimulus strength. After exposure to STR in DMSO (versus exposure to the DMSO alone), spike frequency is decreased. […] Thus it can be seen that methods and compositions of the invention may be used to evaluate signal propagation between cells such as cardiomyocytes or neurons.

Data set [4] deals with cardiomyocytes.
Description: In some embodiments, the reporter cells also include an optical ion sensor that indicates an intracellular concentration of an ion, for example, a calcium reporter. In a preferred embodiment, the optical voltage reporter and the calcium reporter are provided together within a fusion protein. For example, the fusion protein may be CaViar which includes a calcium reporter and a voltage indicator. Using such a fusion protein, detecting the optical signal may include detecting an action potential and calcium transients.
The columns show results from increasing concentrations and each panel is fluorescence over time.
In data set [5] the test system is membrane voltage. The conditions noted are these: literature indicators; cited from earlier work.
Data set [6] has as its system HEK 293T cells. In words: Arch fluorescence versus membrane potential in HEK cells under whole-cell voltage clamp. It counts as cell-based, human. The source says:
An optical reporter such as Arch 3 may be expressed in human embryonic kidney 293 (HEK293T) cells. Fluorescence of Arch 3 in HEK 293T cells was readily imaged in an inverted fluorescence microscope with red illumination (=640 nm, I=540 W/cm2), a high numerical aperture objective, a Cy5 filter set, and an EMCCD camera.
Fluorescence of Arch 3 in HEK 293 cells was readily imaged in an inverted fluorescence microscope with red illumination (lambda=640 nm, I=540 W/cm̂2), a high numerical aperture objective, a Cy5 filter set, and an EMCCD camera. […] Cells not expressing Arch were not fluorescent.
The fluorescence of HEK cells expressing Arch was highly sensitive to membrane potential, as determined via whole-cell voltage clamp. We developed an algorithm to combine pixel intensities in a weighted sum such that the output, was a nearly optimal estimate of membrane potential V determined by conventional electrophysiology.
The fluorescence was divided by its value at −150 mV. The fluorescence increased by a factor of 2 between −150 mV and +150 mV, with a nearly linear response throughout this range (FIG. 35). The response of fluorescence to a step in membrane potential occurred within the 500 micro s time resolution of our imaging system on both the rising and falling edge.
The overshoots on the rising and falling edges were an artifact of electronic compensation circuitry. Data were an average of 20 cycles. […] Cells not expressing Arch 3 were not fluorescent. […] Application of a sinusoidally varying membrane potential led to sinusoidally varying fluorescence; at f=1 kHz, the fluorescence oscillations retained 55% of their low-frequency amplitude (FIG. 37). Arch reported voltage steps as small as 10 mV, with an accuracy of 625 micro V/(Hz)̂(1/2) over timescales<12 s (FIG. 38). Over longer timescales laser power fluctuations and cell motion degraded the accuracy.

The subject of data set [7] is membrane voltage. Briefly: Speed and sensitivity of fluorescent voltage indicators.
Description: Membrane voltage can be measured with a precision of <1 mV in a 1 s interval. […] Arch 3 WT retains the photo-induced proton-pumping, so illumination slightly hyperpolarizes the cell. […] The voltage-indicating protein reporters, sometimes referred to as genetically encoded voltage indicators (GEVIs), may be excited with a laser at wavelengths between 590-640 nm, and the emission is in the near infrared, peaked at 710 nm.

Consider `CC[N+](CC)(CC)CC` [tetraethylammonium], for which the instantaneous firing rate entry in data set [1] (after a few seconds of increasing stimulus intensity, before vs after exposure) is “unexposed cells (“before”) consistently fire at a higher rate”. Further, in data set [1] (after exposure), the Ahp result is listed as “change in Ahp”, the “number of spiking cells” value is on record as “reduction in the number of spiking cells”, the “return of fluorescence to baseline (average waveform)” value is “does not return to baseline to the degree it did before exposure” and the spike height result was “lower”. Also, the instantaneous firing rate entry in data set [1] (lower stimulus intensities (time=0 to about 2 s), exposed cells) is given as “a few very high spikes in firing rate”.

As to `CO[C@H]1/C=C/O[C@@]2(C)Oc3c(C)c(O)c4c(O)c(c(/C=N/N5CCN(C)CC5)c(O)c4c3C2=O)NC(=O)/C(C)=C\C=C\[C@H](C)[C@H](O)[C@@H](C)[C@@H](O)[C@@H](C)[C@H](OC(C)=O)[C@@H]1C` [Rifampin], the “induction of estrogen sulfotransferase” value in data set [2] is recorded as “induce”.

Consider `CC(C)(C)C(O)/C=C/c1ccc2c(c1)OCO2` (stereo not drawn) [stiripentol], for which the spike frequency result in data set [3] (acute doses) is on record as “significantly decreased”; in data set [3] (chronic doses), “decreased”. In data set [3] (visual comparison of FIG. 52 to FIG. 53), the “impact on spike frequency, acute versus chronic exposure” value is on record as “acute STR has a more severe impact on spike frequency than chronic exposure”.

For `O=C(NCC1CCCCN1)c1cc(OCC(F)(F)F)ccc1OCC(F)(F)F` (stereo not drawn) [flecainide], in data set [4], the AP30 result is given as “decrease”, the AP60 result is recorded as “decrease”, the AP90 entry is reported as “decrease” and the Ca amplitude result is listed as “decrease”. Besides, in data set [4], the “average action potential waveform” value is “diverge dramatically”; the “calcium trace (fluorescence over time)” value is “dramatically diminished”; the rise time result was “increase”; the “rise time (average, FIG. 46)” value is on record as “interferes with rise time”. Moreover, in data set [4], the “voltage trace (fluorescence over time)” value is “dramatically diminished”.

Regarding `COc1c(N2C[C@@H]3CCCN[C@@H]3C2)c(F)cc2c(=O)c(C(=O)O)cn(C3CC3)c12` [moxifloxacin], in data set [4], the AP30 result is reported as “decrease”, the AP60 result is on record as “decrease”, the AP90 entry is listed as “decrease” and the Ca amplitude entry is given as “decrease”. In data set [4], the “average action potential waveform” value is recorded as “AP prolongation”, the “calcium trace (fluorescence over time)” value is given as “severely diminished”, the rise time entry is “increase” and the “voltage trace (fluorescence over time)” value is given as “less pronounced effect”.

Turning to Flash, in data set [5], the “f (delta F/F per 100 mV)” value is 5.1% and the response time is 2.8 to 85 ms.

B1: Arch 3 WT: wild type Archaerhodopsin 3, light-driven proton pump from Halorubrum sodomense used as fluorescent voltage indicator (protein, UniProt P96787 7-258, looked up)
Archaerhodopsin-3: QAGYDLLGDGRPETLWLGIGTLLMLIGTFYFLVRGWGVTDKDAREYYAVTILVPGIASAAYLSMFFGIGLTEVTVGGEMLDIYYARYADWLFTTPLLLLDLALLAKVDRVTIGTLVGVDALMIVTGLIGALSHTAIARYSWWLFSTICMIVVLYFLATSLRSAAKERGPEVASTFNTLTALVLVLWTAYPILWIIGTEGAGVVGLGIETLLFMVLDVTAKVGFGFILLRSRAILGDTEAPEPSAGADVSAAD
Regarding B1, the “smallest voltage steps reported” value in data set [6] worked out at 10 mV. For the same molecule, the “fluorescence increase (factor)” value in data set [6] (between −150 mV and +150 mV) came to 2. For the same molecule, the “response of fluorescence to a step in membrane potential” value in data set [6] (rising and falling edge, time resolution of imaging system) is ≤ 500 micro s. The “fluorescence oscillation amplitude retained relative to low-frequency amplitude” value in data set [6] (sinusoidally varying membrane potential, f=1 kHz) is reported as 55%. Moreover, in data set [6] (steps between −70 mV and +30 mV, resolution of imaging system), the step response time was < 0.5 ms. The “accuracy of reported voltage” value in data set [6] (timescales<12 s) was 625 micro V/(Hz)̂(1/2). In data set [7], the “time to 90% of step response” value worked out at 0.6 ms. In addition, the response time in data set [7] (Arch indicators) is < 0.5 ms and 0.6 ms.

B2: Arch D95N: Archaerhodopsin 3 with D95N mutation, voltage indicator (protein, UniProt P96787 7-258, looked up, variant D95N)
Archaerhodopsin-3: B1 Archaerhodopsin-3 with D89N
B2: in data set [7] (Arch indicators), the “f (delta F/F per 100 mV)” value is given as 100% and the response time is 41 ms.
